In patent publication US5814627A, “3, 5-disubstituted and 3, 4, 5-trisubstituted 2-isoxazolines and isoxazoles, process for their preparation and their use as pharmaceuticals” (Hoechst Aktienegesellschaft, priority 1994, dated 1998):

Assays:
[1] = system: polymorphonuclear leucocytes (PMNL); test: Test 1: Release of proteolytic activity from human PMNL; format: cell-based; details: Homo sapiens, PMNL, read-out: Test 1 residual activity (release of proteolytic activity), percent of control
Outline: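 Human peripheral-blood PMNL (5·10^6 cells/ml in PBS with 7.5 mM glucose) preincubated 20 min at 37° C. with compound, then primed with cytochalasin B (5 μg/ml) and TNF (30 ng/ml), and stimulated with fMLP (10 nmol/l) for 60 min. Released protease in supernatant read with methoxysuccinyl-nitroanilide substrate at 405 nm over 0-60 min, pH 7.5.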

[2] = system: IL-6 release from mononuclear cells; test: Test 4: cytokine release from LPS-stimulated mononuclear cells, IL-6; format: cell-based; details: Homo sapiens, 5 hours incubation, read-out: Test 4 residual activity (IL-6 release), percent of control
Protocol: (§1) Test 4. Stimulation of the cytokine release
(§2) Isolation of mononuclear cells from human blood
10 ml of human blood, stabilized with 1 ml of 3.8% sodium citrate solution, were diluted with 10 ml of PM16 (Serva, Heidelberg) and underlaid with 15 ml of Lymphoprep (Dr. Molter GmbH, Heidelberg). The samples were centrifuged, at room temperature for 40 minutes, at 400×g (1600 rpm, Minifuge 2, Heraeus, Osterode). The mononuclear cells are visible as a white ring at the Lymphoprep/plasma interface. This ring was carefully removed with a syringe, diluted with an equal volume of PM16, and centrifuged for 10 minutes at 400×g. […] After the cells had been resuspended in approximately 1 ml of RPMI1640 (+300 mg/l L-glutamine+25 mM HEPES+100 μg/ml streptomycin+100 μg/ml penicillin), the cell density was determined using a Coulter Counter JT (Coulter Diagnostics) and adjusted to 5*10^6 /ml. […]
230 μl of mononuclear cells were incubated, at 37° C.; 5% CO2 for 20-22 hours (5 hours in the case of IL-6), with 10 μl of test substance (10 μM in DMSO/water, 1/10) and 10 μl of lipopolysaccharide (LPS; 500 μg dissolved in 1 ml of DMSO and diluted 1/10 with water prior to beginning the test; from Salmonella abortus equi, Sigma, Deisenhofen). […] Aliquots of the supernatant are measured with an ELISA (Biermann, Bad Nauheim). […]

[3] = system: TNFα release from mononuclear cells; test: Test 4: cytokine release from LPS-stimulated mononuclear cells, TNFα; format: cell-based; details: Homo sapiens, read-out: Test 4 residual activity (TNFα release), percent of control
Protocol: as §1, §2
(§3) 10 ml of human blood, stabilized with 1 ml of 3.8% sodium citrate solution, were diluted with 10 ml of PM16 (Serva, Heidelberg) and underlaid with 15 ml of Lymphoprep (Dr. Molter GmbH, Heidelberg). The samples were centrifuged, at room temperature for 40 minutes, at 400×g (1600 rpm, Minifuge 2, Heraeus, Osterode). The mononuclear cells are visible as a white ring at the Lymphoprep/plasma interface. This ring was carefully removed with a syringe, diluted with an equal volume of PM16, and centrifuged for 10 minutes at 400×g. The sediment was washed with approximately 10 ml of RPMI1640 (+300 mg/l L-glutamine, Gibco, Eggenstein) (Wallis, 1986). After the cells had been resuspended in approximately 1 ml of RPMI1640 (+300 mg/l L-glutamine+25 mM HEPES+100 μg/ml streptomycin+100 μg/ml penicillin), the cell density was determined using a Coulter Counter JT (Coulter Diagnostics) and adjusted to 5*10^6 /ml. Typically, the cells are composed of 90% lymphocytes and 10% monocytes.
(§4) 230 μl of mononuclear cells were incubated, at 37° C.; 5% CO2 for 20-22 hours (5 hours in the case of IL-6), with 10 μl of test substance (10 μM in DMSO/water, 1/10) and 10 μl of lipopolysaccharide (LPS; 500 μg dissolved in 1 ml of DMSO and diluted 1/10 with water prior to beginning the test; from Salmonella abortus equi, Sigma, Deisenhofen). The samples were cooled down to 0° C. in an ice bath and centrifuged in a Sigma centrifuge (2 minutes; 2000 rpm). Aliquots of the supernatant are measured with an ELISA (Biermann, Bad Nauheim). The abbreviation IL stands for interleukin and TNF for tumor necrosis factor alpha.
(§5) The values in the table show the concentration of the test substance which was employed in μM and, besides this, the residual activity measured in percent based on the control, which was set to be 100%. The interleukin is additionally indicated in test 4.

[4] = system: PAF-induced asthma attack; test: Test 7: antiasthmatic effect, PAF-induced asthma attack; format: in vivo; details: Cavia porcellus; i.d., 15 minutes before PAF; guinea pig
Outline: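 Anesthetized guinea pigs given PAF through a jugular vein cannula; test compounds dosed i.v. through the same cannula 5 min before PAF, or intraduodenally via surgical cannula 15 min before. Bronchial width recorded by overflow pneumonogram before and after dosing; ED50 in mg/kg i.d. against the PAF-induced attack.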

[5] = system: IL-1 release from mononuclear cells; test: Test 4: cytokine release from LPS-stimulated mononuclear cells, IL-1; format: cell-based; details: Homo sapiens; IL-1; 10 μM; read-out: Test 4 residual activity (IL-1 release), percent of control
Protocol: as §1, §2, §3, §4, §5

[6] = system: IL-1α release from mononuclear cells; test: Test 4: cytokine release from LPS-stimulated mononuclear cells, IL-1α; format: cell-based; details: Homo sapiens, 10 μM, read-out: Test 4 residual activity (IL-1α release), percent of control
Protocol: as §1, §2, §3
as §4, with “([…])” for “(10 μM in DMSO/water, 1/10)”
as §5

adjuvant/arthritis model = test: Test 6: antiarthritic effect in the adjuvant/arthritis model; format: in vivo, rat (Wistar-Lewis); details: Rattus norvegicus, po, 408 h, 50 mg/kg orally, daily for 17 days; rat; read-out: Test 6 Paw volume (% inhibition)

SMILES | activity at 1 µM [1] [%] | activity at 10 µM [1] [%] | activity at 100 µM [1] [%] | activity at 1 µM ([2]; 1 μM) [%] | activity at 10 µM [3] [%] | ED50 [4] [mg/kg] | activity at 10 µM [5] [%] | activity at 10 µM ([2]; 10 μM) [%] | activity at 10 µM [6] [%] | inhibition in vivo at 50 mg/kg (adjuvant/arthritis model) [%]
CC(C)(C)c1cc(-c2cc(CNS(=O)(=O)C(F)(F)F)on2)cc(C(C)(C)C)c1O [Example 49, N-(3-(4-Hydroxy-3,5-di-tert-butylphenyl)isoxazol-5-ylmethyl)trifluoromethanesulfonamide] | 88 | 23 | 19 | 91 | 91 | ~50 | – | – | – | –
CC(C)(C)c1cc(C2=NOC(c3ccccn3)C2)cc(C(C)(C)C)c1O (centres unmarked) [Example 9] | – | – | 64 | – | 63 | ~50 | 73 | 93 | – | –
CC(O)c1cc(-c2cc(C(C)(C)C)c(O)c(C(C)(C)C)c2)no1 (centres unmarked) [Example 28] | 97 | 59 | – | – | – | – | – | – | 93 | 74
CCOC(=O)CNC(=O)OCCCc1cc(-c2cc(C(C)(C)C)c(O)c(C(C)(C)C)c2)no1 [Example 41, N-(3-(4-Hydroxy-3,5-di-tert-butylphenyl)isoxazol-5-ylpropoxycarbonyl)glycine ethyl ester] | – | – | 78 | – | 89 | – | – | – | – | –
CC(C)(C)c1cc(C2CC(CCC(=O)O)=NO2)cc(C(C)(C)C)c1O (centres unmarked) [Example 63, 5-(4-Hydroxy-3,5-di-tert-butylphenyl)-2-isoxazolin-3-ylpropionic acid] | – | 88 | 66 | – | – | – | – | – | 75 | –
